# According to ChEMBL document CHEMBL1201862, “PubChem BioAssay data set” (2004):
# The source made the active and inactive calls.
# Columns and labels:
# Beta-lactamase [1] = molecular target: T1, Beta-lactamase (Pseudomonas aeruginosa, UniProt Q79MP6); assay: […] counterscreen for selective VIM-2 inhibitors: dose response biochemical high throughput screening assay to identify inhibitors of IMP-1 metallo-beta-lactamase.
# Beta Lactamase [2] = molecular target: T2, Beta Lactamase (Pseudomonas aeruginosa, UniProt Q932Y6); assay: concentration-dependent VIM-2 enzyme inhibition – biochemical, epi-absorbance readout, selective inhibitors, dose response (AID 1919)
# Beta Lactamase [3] = molecular target: T2, Beta Lactamase; assay: VIM-2 CCF2 hydrolysis inhibition, assay artifact filter – biochemical, FRET readout, CCF2 substrate, artefact control for selective VIM-2 inhibitor project, dose response (AID 1926)
# Beta-lactamase [4] = molecular target: T1, Beta-lactamase; assay: inhibition of IMP-1 beta-lactamase activity – biochemical, epi-absorbance, selectivity assay for VIM-2 inhibitor project, dose response (AID 1920)
# Beta-lactamase [5] = molecular target: Beta-lactamase (Salmonella choleraesuis (strain SC-B67), UniProt Q5J463); assay: Epi-absorbance-based counterscreen for selective VIM-2 inhibitors: dose response biochemical high throughput screening assay to identify inhibitors of TEM-1 serine-beta-lactamase.
# [6] = molecular target: Broad substrate specificity ATP-binding cassette transporter ABCG2 (Homo sapiens, UniProt Q9UNQ0); assay: blockers of JC-1 export by ABCG2 – Ig-MXP3 cells, flow cytometry, dose response (AID 1690); format: functional
# [7] = molecular target: Long-chain-fatty-acid--AMP ligase FadD28 (Mycobacterium tuberculosis, UniProt P9WQ59); assay: Fluorescence polarization aasay to screen for inhibitors that compete for the binding of FadD28 to a bisubstrate Measured in Biochemical System Using Plate Reader - 2147-01_Inhibitor_Dose_CherryPick_Activity.; format: functional, Mycobacterium tuberculosis H37Rv
# Large T antigen = Large T antigen (Simian virus 40, UniProt P03070); format: functional, Betapolyomavirus macacae;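 further: Confirmatory-stage PubChem screen for compounds that inhibit SV40 T antigen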
# Sequence of Large T antigen (P03070 whole entry): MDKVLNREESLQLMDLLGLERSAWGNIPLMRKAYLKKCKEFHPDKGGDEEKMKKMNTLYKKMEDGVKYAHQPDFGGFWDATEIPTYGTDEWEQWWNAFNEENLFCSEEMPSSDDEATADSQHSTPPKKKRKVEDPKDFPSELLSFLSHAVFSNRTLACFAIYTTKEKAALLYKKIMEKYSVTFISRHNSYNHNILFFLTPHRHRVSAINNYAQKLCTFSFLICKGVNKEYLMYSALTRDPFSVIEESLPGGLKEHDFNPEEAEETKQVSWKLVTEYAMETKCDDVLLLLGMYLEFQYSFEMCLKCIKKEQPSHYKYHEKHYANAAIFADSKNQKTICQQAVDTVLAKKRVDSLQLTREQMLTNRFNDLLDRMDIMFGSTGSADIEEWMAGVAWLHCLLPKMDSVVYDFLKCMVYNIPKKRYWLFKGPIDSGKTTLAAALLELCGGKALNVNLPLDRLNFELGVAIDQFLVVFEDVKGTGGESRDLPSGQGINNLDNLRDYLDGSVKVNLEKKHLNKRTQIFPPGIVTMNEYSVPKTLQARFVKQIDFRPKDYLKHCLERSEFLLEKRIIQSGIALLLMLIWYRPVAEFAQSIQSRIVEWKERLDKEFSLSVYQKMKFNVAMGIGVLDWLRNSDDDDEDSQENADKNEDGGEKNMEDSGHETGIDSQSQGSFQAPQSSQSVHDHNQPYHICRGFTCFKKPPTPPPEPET
# T2 sequence (Q932Y6 whole entry): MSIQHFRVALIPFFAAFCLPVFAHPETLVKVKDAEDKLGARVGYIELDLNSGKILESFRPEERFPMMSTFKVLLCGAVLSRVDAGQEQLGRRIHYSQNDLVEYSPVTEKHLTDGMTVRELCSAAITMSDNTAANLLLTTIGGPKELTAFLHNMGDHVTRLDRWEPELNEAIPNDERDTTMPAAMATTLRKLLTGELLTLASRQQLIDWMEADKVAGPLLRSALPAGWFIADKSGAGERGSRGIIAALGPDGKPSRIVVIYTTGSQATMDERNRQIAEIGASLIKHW
# T1 sequence (Q79MP6 whole entry): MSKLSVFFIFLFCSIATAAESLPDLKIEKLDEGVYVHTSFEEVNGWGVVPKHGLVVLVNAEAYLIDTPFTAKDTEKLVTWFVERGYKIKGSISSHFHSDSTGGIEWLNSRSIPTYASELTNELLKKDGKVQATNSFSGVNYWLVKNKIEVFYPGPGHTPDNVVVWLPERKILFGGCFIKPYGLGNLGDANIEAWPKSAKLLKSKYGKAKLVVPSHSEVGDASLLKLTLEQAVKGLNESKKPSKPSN
# Sequence of Long-chain-fatty-acid--AMP ligase FadD28 (P9WQ59 whole entry): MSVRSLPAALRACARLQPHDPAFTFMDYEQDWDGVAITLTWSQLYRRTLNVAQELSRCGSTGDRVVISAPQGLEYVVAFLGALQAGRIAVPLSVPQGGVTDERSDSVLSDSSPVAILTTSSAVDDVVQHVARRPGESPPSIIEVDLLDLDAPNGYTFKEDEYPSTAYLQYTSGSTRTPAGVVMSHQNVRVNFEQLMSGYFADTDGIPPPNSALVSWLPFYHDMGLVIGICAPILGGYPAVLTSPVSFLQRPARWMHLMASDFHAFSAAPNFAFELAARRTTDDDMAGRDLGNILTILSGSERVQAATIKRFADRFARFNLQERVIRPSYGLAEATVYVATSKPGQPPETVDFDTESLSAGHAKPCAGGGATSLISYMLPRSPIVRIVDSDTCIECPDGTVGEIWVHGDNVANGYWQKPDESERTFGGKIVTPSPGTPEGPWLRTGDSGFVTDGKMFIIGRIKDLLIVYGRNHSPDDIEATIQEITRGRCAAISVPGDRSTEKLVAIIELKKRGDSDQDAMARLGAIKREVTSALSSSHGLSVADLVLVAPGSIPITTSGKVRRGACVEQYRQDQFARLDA
# Sequence of Broad substrate specificity ATP-binding cassette transporter ABCG2 (Q9UNQ0 whole entry): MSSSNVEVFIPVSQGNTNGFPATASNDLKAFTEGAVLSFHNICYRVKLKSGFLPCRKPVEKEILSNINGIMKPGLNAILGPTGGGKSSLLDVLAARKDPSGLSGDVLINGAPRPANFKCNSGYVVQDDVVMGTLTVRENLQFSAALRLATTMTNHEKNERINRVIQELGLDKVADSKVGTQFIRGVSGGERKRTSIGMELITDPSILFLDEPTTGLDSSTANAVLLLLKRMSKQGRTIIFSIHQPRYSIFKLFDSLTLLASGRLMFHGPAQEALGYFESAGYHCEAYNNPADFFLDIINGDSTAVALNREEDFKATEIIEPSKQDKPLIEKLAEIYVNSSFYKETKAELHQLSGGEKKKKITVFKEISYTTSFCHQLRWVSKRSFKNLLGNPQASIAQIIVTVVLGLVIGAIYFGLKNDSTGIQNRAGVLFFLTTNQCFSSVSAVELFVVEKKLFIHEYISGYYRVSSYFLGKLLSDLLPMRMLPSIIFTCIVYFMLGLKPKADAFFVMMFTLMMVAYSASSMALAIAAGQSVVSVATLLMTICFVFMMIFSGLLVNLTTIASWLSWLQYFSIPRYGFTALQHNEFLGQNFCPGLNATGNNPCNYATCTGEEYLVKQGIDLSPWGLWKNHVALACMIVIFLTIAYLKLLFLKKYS
# Sequence of Beta-lactamase (Salmonella choleraesuis (strain SC-B67), UniProt Q5J463) (Q5J463 whole entry): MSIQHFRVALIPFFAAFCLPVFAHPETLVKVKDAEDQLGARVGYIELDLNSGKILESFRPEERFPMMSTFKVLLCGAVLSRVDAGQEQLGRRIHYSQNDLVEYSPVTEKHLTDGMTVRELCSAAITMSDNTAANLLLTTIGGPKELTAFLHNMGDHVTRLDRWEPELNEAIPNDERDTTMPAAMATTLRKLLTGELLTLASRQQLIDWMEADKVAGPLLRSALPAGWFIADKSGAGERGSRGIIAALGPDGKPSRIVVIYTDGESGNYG
structure (smiles),measurement,setting,value
CN(C)S(=O)(=O)c1cccc(NC(=S)N/N=C/C2CC=CCC2)c1 (stereo not drawn),IC50,Beta-lactamase [1],> 59.6 µM (inactive)
same,IC50,Beta Lactamase [2],1 µM (active)
same,IC50,Beta Lactamase [3],0.335 µM (active)
same,IC50,Beta-lactamase [4],> 59.6 µM (inactive)
same,IC50,Beta-lactamase [5],> 59.6 µM (inactive)
COc1cc(C(=O)Nc2ccc(S(=O)(=O)NC(C)C)cc2)cc(OC)c1OC,EC50,[6],1.32 µM (inactive)
Cc1[nH]c2ccccc2c1-c1csc(NC(=O)CSCC(=O)O)n1,AC50,[7],> 100 µM (inactive)
same,IC50,Large T antigen,26.2 µM (active)
